Experimental data reported in patent publication US11103602B2, “PET imaging of zinc transport” (Mayo Foundation for Medical Education and Research, priority 2013, dated 2021).
Values joined by “and” are separate entries in the source; they are usually repeats but may differ in a detail not shown here. Identical values can stand only once. Each block holds one molecule with its values, some of them ahead of it.

How the values were obtained:
[1] = cited from earlier work
[2] = brain at 30 minutes; vs Be, Sc, V, Cr, Mn, Fe, Co, As, Se, Rb, Sr, Y, Zr, Tc, Ru; cited from earlier work
[3] = Biodistribution of ^63Zn citrate in normal mice; type: in vivo
Experimental: Uptake may be measured in units of Standardized Uptake Value (SUV)=(uptake/g tissue)/(injected dose/g body mass).
Biodistribution characteristics of ^63Zn citrate were investigated in male B6.SJL mice (n=4) (Jackson Laboratories, Bar Harbor, Me., USA) under the approval of the Mayo Clinic Institutional Animal Care and Use Committee. Animals were administered ^63Zn citrate (˜1.8-3.6 MBq) into a tail vein and euthanized at 60 minutes for biodistribution analysis. Tissues were weighed and counted for radioactivity. Biodistribution data were expressed as Standard Uptake Value (SUV)=(counts/g)tissue/(injected dose counts/wt. of mouse (g)).
Biodistribution data was expressed as mean±sd. Statistical comparison of analytical data between groups of runs was performed using the two-tailed Student's T-test. Statistical comparison of intracerebral regional uptake of ^63Zn was performed using ANOVA. P-values <0.05 were considered statistically significant.

[4] = PET images of ^63Zn Citrate in human subjects; type: in vivo
Text: High uptake is seen in liver, pancreas, spleen, intestines, and thyroid.

[5] = Pharmacokinetics of ^63Zn Citrate in blood and plasma of an Alzheimer's disease patient; type: in vivo, human
Experimental: Venous blood samples were taken in heparinized tubes after injection of radiotracer. The samples were centrifuged, and plasma separated. The curves show a rapid clearance of ^63Zn from the blood that is completed by 90 minutes. After this time, the concentrations of ^63Zn in both plasma and whole blood are relatively constant. The concentration of ^63Zn in whole-blood rises relative to plasma to reach equilibrium at around 90 minutes post-injection.

[6] = Pharmacokinetics of ^63Zn Citrate in cerebral cortical region of interest; type: in vivo, human; conditions: for Vascular clearance phase in cerebral cortical region of interest: post-injection
[7] = Biodistribution of ^63Zn citrate in normal mice; type: in vivo; remark: listed apart in the source
[8] = mean of normal mice, 1 hour after IV
[9] = subject with Alzheimer's disease
[10] = individual normal (Wild) mice 1-5, 1 hour after IV
[11] = individual normal (Wild) mice 3-5, 1 hour after IV
[12] = mean of normal mice, 1 hour after IV, listed as 63Zn
[13] = mean of normal mice, 1 hour after IV, listed as 63Zn Citrate

SMILES: CN(C)Cc1ccc2c(Cl)cc(Cl)c(O)c2n1 [PBT2]
Levels of AβO and p-Tau in the cerebrospinal fluid (CSF) ([1]; AD patients treated for a 12-week period): significantly decreased
Cognitive test scores ([1]; AD patients, 12-week period, highest dose level (250 mg daily)): significant improvement

SMILES: [65Zn] [^65Zn]
Zinc uptake in brain relative to the other metal ions measured [2]: several fold higher

SUV, Kidney, Average [3, 8]: 4.2±1.3 SUV and 4.21 ± 1.30 SUV
Uptake in pancreas, liver, kidneys, upper intestines, prostate and seminal vesicles (in words) ([3]; normal mice, 1 hour after IV): high uptake
Uptake in brain regions (regional SUVs) ([3]; normal mice, 1 hour after IV, span over brain regions): 0.2-0.5 SUV
Murine brain uptake (in words) ([3]; normal mice, 60 minutes): moderately low, but significant
Uptake in cerebral cortex, prostate, pituitary gland, and salivary glands (PET) ([4]; Alzheimer's disease subject): Moderate to low uptake
Uptake in liver, pancreas, spleen, intestines, and thyroid (PET) ([4]; Alzheimer's disease subject): High uptake
Uptake in cerebral cortex, pituitary gland, and salivary glands (PET) ([4]; healthy elderly human subject): Moderate to low uptake
Uptake in liver, pancreas, spleen, intestines, and thyroid (PET) ([4]; healthy elderly human subject): High uptake
Time at which whole-blood concentration relative to plasma reaches equilibrium ([5]; post-injection): around 90 minutes
Time by which clearance from the blood is completed ([5]; venous blood samples after injection): ≤ 90 min
Clearance from the cortical brain region between 50 minutes and 90 minutes ([6]; healthy elderly subject): little clearance
Clearance from the cortical brain region between 50 minutes and 90 minutes [6, 9]: little clearance
Brain penetration (in words) ([7]; five normal male mice, IV, 1 hour): brain penetrant
SUV, Prostate [7, 11]: 0.47 SUV and 0.85 SUV and 0.44 SUV
SUV, Seminal Vesicle [7, 11]: 1.397 SUV and 2.588 SUV and 1.09 SUV
SUV, Bladder, Average [7, 8]: 1.39 SUV
SUV, Blood, Average [7, 8]: 0.57 ± 0.25 SUV
SUV, Bone, Average [7, 8]: 0.76 ± 0.34 SUV
SUV, Brain Stem, Average [7, 8]: 0.25 ± 0.09 SUV
SUV, Caudate Nuclei, Average [7, 8]: 0.37 ± 0.23 SUV
SUV, Cerebellum, Average [7, 8]: 0.31 ± 0.14 SUV
SUV, Cortex, Average [7, 8]: 0.19 ± 0.07 SUV
SUV, Heart, Average [7, 8]: 1.12 ± 0.23 SUV
SUV, Hippocampus, Average [7, 8]: 0.48 ± 0.37 SUV
SUV, Liver, Average [7, 8]: 6.0±1.9 SUV and 5.97 ± 1.92 SUV
SUV, Lung, Average [7, 8]: 2.06 ± 0.62 SUV
SUV, Muscle, Average [7, 8]: 0.21 ± 0.08 SUV
SUV, Pancreas, Average [7, 8]: 8.8±3.2 SUV and 8.78 ± 3.22 SUV
SUV, Prostate, Average [7, 8]: 0.58 ± 0.23 SUV
SUV, Seminal Vesicle, Average [7, 8]: 1.69 ± 0.79 SUV
SUV, Spleen, Average [7, 8]: 2.30 ± 1.01 SUV
SUV, Thalamus, Average [7, 8]: 0.26 ± 0.10 SUV
SUV, Upper Intestine, Average [7, 8]: 4.7±2.1 SUV and 4.72 ± 2.18 SUV
SUV, Whole Brain, Average [7, 8]: 0.24 ± 0.09 SUV
SUV, Pancreas, Average [7, 12]: 8.8±3.2 SUV
SUV, Whole Brain, Average [7, 12]: 0.24±0.09 SUV
SUV, Blood, Average [7, 13]: 0.57 SUV
SUV, Bone, Average [7, 13]: 0.76 SUV
SUV, Brain Stem, Average [7, 13]: 0.25 SUV
SUV, Caudate Nuclei, Average [7, 13]: 0.37 SUV
SUV, Cerebellum, Average [7, 13]: 0.31 SUV
SUV, Cortex, Average [7, 13]: 0.19 SUV
SUV, Heart, Average [7, 13]: 1.12 SUV
SUV, Hippocampus, Average [7, 13]: 0.48 SUV
SUV, Kidney, Average [7, 13]: 4.21 SUV
SUV, Liver, Average [7, 13]: 5.97 SUV
SUV, Lung, Average [7, 13]: 2.06 SUV
SUV, Muscle, Average [7, 13]: 0.21 SUV
SUV, Pancreas, Average [7, 13]: 8.78 SUV
SUV, Prostate, Average [7, 13]: 0.58 SUV
SUV, Seminal Vesicle, Average [7, 13]: 1.69 SUV
SUV, Spleen, Average [7, 13]: 2.3 SUV
SUV, Thalamus, Average [7, 13]: 0.26 SUV
SUV, Upper Intestine, Average [7, 13]: 4.72 SUV
SUV, Whole Brain, Average [7, 13]: 0.24 SUV
SMILES: O=C([O-])CC(O)(CC(=O)[O-])C(=O)[O-].O=C([O-])CC(O)(CC(=O)[O-])C(=O)[O-].[63Zn+2].[63Zn+2].[63Zn+2] [^63Zn citrate]
Differences in SUVs between intracerebral regions (ANOVA) ([3]; normal mice, 1 hour): did not show statistically significant differences
Vascular clearance phase in cerebral cortical region of interest ([6]; healthy elderly subject): rapid vascular clearance phase in the first minute
Vascular clearance phase in cerebral cortical region of interest [6, 9]: rapid vascular clearance phase in the first minute
SUV, Bladder [7, 10]: 1.27 SUV and 3.66 SUV and 1.13 SUV and 0.73 SUV and 0.18 SUV
SUV, Blood [7, 10]: 0.47 SUV and 0.36 SUV and 0.94 SUV and 0.69 SUV and 0.38 SUV
SUV, Bone [7, 10]: 0.72 SUV and 0.5 SUV and 1.11 SUV (2×) and 0.38 SUV
SUV, Brain Stem [7, 10]: 0.25 SUV (2×) and 0.34 SUV and 0.32 SUV and 0.11 SUV
SUV, Caudate Nuclei [7, 10]: 0.34 SUV and 0.23 SUV and 0.57 SUV and 0.63 SUV and 0.09 SUV
SUV, Cerebellum [7, 10]: 0.27 SUV (2×) and 0.38 SUV and 0.49 SUV and 0.13 SUV
SUV, Cortex [7, 10]: 0.2 SUV (2×) and 0.19 SUV and 0.27 SUV and 0.09 SUV
SUV, Heart [7, 10]: 1.11 SUV (2×) and 1.47 SUV and 1.1 SUV and 0.82 SUV
SUV, Hippocampus [7, 10]: 0.28 SUV and 0.24 SUV and 0.88 SUV and 0.87 SUV and 0.12 SUV
SUV, Kidney [7, 10]: 3.8 SUV and 4.32 SUV and 6.01 SUV and 4.49 SUV and 2.42 SUV
SUV, Liver [7, 10]: 6.18 SUV and 5.27 SUV and 8.72 SUV and 6.29 SUV and 3.4 SUV
SUV, Lung [7, 10]: 2.67 SUV and 1.8 SUV and 2.54 SUV and 2.19 SUV and 1.13 SUV
SUV, Muscle [7, 10]: 0.2 SUV and 0.19 SUV and 0.31 SUV and 0.26 SUV and 0.1 SUV
SUV, Pancreas [7, 10]: 10.67 SUV and 5.25 SUV and 11.95 SUV and 10.68 SUV and 5.33 SUV
SUV, Spleen [7, 10]: 2.37 SUV and 1.8 SUV and 3.71 SUV and 2.62 SUV and 0.97 SUV
SUV, Thalamus [7, 10]: 0.29 SUV and 0.25 SUV and 0.38 SUV and 0.28 SUV and 0.11 SUV
SUV, Upper Intestine [7, 10]: 3.02 SUV and 2.99 SUV and 7.66 SUV and 6.46 SUV and 3.47 SUV
SUV, Whole Brain [7, 10]: 0.25 SUV and 0.23 SUV and 0.35 SUV and 0.3 SUV and 0.1 SUV
